US7317100B2, “Epothilone derivatives” (Novartis AG, priority 2002, dated 2008)

Key:
[1] = target: T1, porcine microtubule protein (tubulin plus microtubule-associated proteins) (Sus scrofa, UniProt P02554); experiment: Test-compound-induced polymerisation of porcine microtubule protein (inhibition of microtubule depolymerisation); type: biochemical, pig; settings: test compound 4 uM, porcine microtubule protein (Batch #9) 0.8 mg/ml; 25 μM epothilone B = 100% polymerization, vehicle = 0%
T1 construct: extracted from pigs' brain by two cycles of temperature-dependent depolymerisation/polymerisation; from tissue; host or cells: pig brain
Experimental: Stock solutions of the test compounds (10 mM) are prepared in DMSO and stored at −20° C. […] The degree of test-compound-induced polymerisation of porcine microtubule protein is determined basically as already known (see Lin et al., Cancer Chem. Pharm. 1996; 38:136-140). To summarise, a working aliquot of porcine microtubule protein is rapidly thawed and then diluted to 2× final desired concentration in ice-cold 2× MEM buffer (200 ml MES, 2 mM EGTA, 2 mM MgCl2, pH 6.7) [MES=2-morpholinoethanesulphonic acid, EGTA=ethylene glycol-bis-2(2-aminoethyl)-tetraacetic acid]. Drug or vehicle (DMSO, final concentration 5%) is diluted in water at room temperature to 2× the final desired concentration in a 0.5 ml eppendorf tube, and then put on ice. Following addition of an equal volume (50 μl) of microtubule protein (2× final desired concentration in 2× MEM buffer), the polymerization reaction is started by transferring the incubation mixtures to a room-temperature water bath for 5 min. The reaction mixtures are then placed in an Eppendorf microcentrifuge (model 5415 C) and incubated for an additional 15 min at room temperature. The samples are then centrifuged for 15 min at 14,000 rpm at room temperature. As an indirect measure for microtubule protein polymerization, the protein concentration of the supernatant (containing the remainder of non-polymerized, soluble microtubule protein) is determined by the Lowry method (DC Assay Kit, Bio-Rad Laboratories, Hercules, Calif.) and the optical density of the colour reaction is measured at 750 nm with a SpectraMax 340 photometer (Molecular Devices, Sunnydale, Calif.). […] Vehicle-treated samples serve as negative control (0% polymerization).
Final assay concentrations of test compound and porcine microtubule protein (Batch #9) were 4 uM and 0.8 mg/ml, respectively.

[2] = tested on: KB-8511 (multidrug-resistant, P-gp170 overexpressing) epidermoid carcinoma cells; experiment: Cell growth inhibition, multidrug-resistant KB-8511 epidermoid carcinoma cells (methylene blue staining); type: cell-based, human; settings: KB-8511 cells (P-gp170 overexpressing), 4 days incubation with compound
Experimental: (§1) Stock solutions of the test compounds (10 mM) are prepared in DMSO and stored at −20° C. Human KB-31 and (multidrug-resistant, P-gp170 overexpressing) KB-8511 epidermoid carcinoma cells originate from Dr. M. Baker, Roswell Park Memorial institute (Buffalo, N.Y., USA) (description: see also Akiyama et al., Somat. Cell. Mol. Genetics 11, 117-126 (1985) and Fojo A., et al., Cancer Res. 45, 3002-3007 (1985) -KB-31 and KB-8511 are both derivatives of the KB cell line (ATCC). KB 31 cells may be cultivated in monolayers using RPMI-1640 medium (Amimed, BioConcept, Allschwil, Switzerland) with 10% foetal calf serum (Amimed, BioConcept, Allschwil, Switzerland), L-glutamine (Amimed, BioConcept, Allschwil, Switzerland), penicillin (50 units/ml) and streptomycin (50 μg/ml (Amimed, BioConcept, Allschwil, Switzerland). KB-8511 is a variant derived from the KB-31 cell line, which was obtained using colchichine treatment cycles, and has an approximately 40 times relative resistance to colchichine compared with KB-31 cells (Akiyama et al., Somat. Cell. Mol. Genetics 11, 117-126 (1985) and Fojo A., et al., Cancer Res. 45, 3002-3007 (1985)). The cells are incubated at 37° C. in an incubator with 5% v/v CO2 and at 80% relative humidity with RPMI-1640 medium complemented as described above. The cells are seeded in a quantity of 1.5×10^3 cells/well in 96-well microtitre plates, and incubated over night. Serial dilutions of the test compounds in culture medium are added on day 1. The plates are then incubated for a further 4 days, after which the cells are fixed with 3.3% v/v glutaraldehyde, washed with water and dyed with 0.05% w/v methylene blue. After washing, the dye is eluted with 3% HCl and the optical density measured at 665 nm with a SpectraMax 340 (Molecular Devices, Sunnyvale, Calif.). IC50 values are determined by adaptation of mathematical curves, using the SoftProprogramme (Version 2.0 or later; Molecular Devices, Sunnyvale, Calif.) and using the formula [(OD treated)−(OD start)]/[(OD control)−(OD start)]×100. […]

[3] = tested on: KB-31 epidermoid carcinoma cells; experiment: Cell growth inhibition, KB-31 epidermoid carcinoma cells (methylene blue staining); type: cell-based, human; settings: KB-31 cells, 4 days incubation with compound
Experimental: as §1

T1 sequence (P02554 whole entry): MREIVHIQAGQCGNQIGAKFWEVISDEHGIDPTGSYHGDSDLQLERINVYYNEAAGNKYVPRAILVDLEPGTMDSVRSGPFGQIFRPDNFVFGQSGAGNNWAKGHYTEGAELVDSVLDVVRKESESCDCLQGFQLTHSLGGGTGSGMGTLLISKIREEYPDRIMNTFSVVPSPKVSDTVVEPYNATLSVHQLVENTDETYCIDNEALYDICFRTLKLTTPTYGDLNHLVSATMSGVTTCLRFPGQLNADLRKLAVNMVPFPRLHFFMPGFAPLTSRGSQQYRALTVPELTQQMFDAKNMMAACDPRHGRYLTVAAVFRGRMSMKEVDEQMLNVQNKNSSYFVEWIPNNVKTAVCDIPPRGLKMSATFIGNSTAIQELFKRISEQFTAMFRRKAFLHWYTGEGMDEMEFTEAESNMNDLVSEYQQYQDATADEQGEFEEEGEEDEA
T1 sequence (P02550 whole entry partner): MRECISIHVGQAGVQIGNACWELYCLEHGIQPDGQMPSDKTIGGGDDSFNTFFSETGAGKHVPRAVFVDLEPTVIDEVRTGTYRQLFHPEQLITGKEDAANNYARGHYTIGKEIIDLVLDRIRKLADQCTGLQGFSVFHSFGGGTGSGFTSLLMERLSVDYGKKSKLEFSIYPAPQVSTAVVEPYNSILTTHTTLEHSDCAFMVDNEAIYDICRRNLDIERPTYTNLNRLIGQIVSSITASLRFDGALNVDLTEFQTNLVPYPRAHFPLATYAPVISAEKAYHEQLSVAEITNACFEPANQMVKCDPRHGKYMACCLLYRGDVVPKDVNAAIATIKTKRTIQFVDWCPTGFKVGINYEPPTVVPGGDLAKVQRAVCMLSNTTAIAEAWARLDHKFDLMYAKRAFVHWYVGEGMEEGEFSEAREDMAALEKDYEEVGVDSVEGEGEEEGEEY

IC50 ([2]; Homo sapiens, 96 h) [nM]	IC50 ([3]; Homo sapiens, KB 3-1, 96 h) [nM]	Structure (SMILES)	Tubulin Polymerisation (% of control) [1]	IC50 [2] [nM]	IC50 [3] [nM]
–	–	C/C(=C\c1csc(C)n1)[C@@H]1C[C@@H]2O[C@@H]2CCC[C@H](C)[C@H](O)[C@@H](C)C(=O)C(C)(C)[C@@H](O)CC(=O)O1 [Epothilone A]	76.5 % of control	–	–
–	–	C/C(=C\c1csc(C)n1)[C@@H]1C[C@@H]2O[C@]2(C)CCC[C@H](C)[C@H](O)[C@@H](C)C(=O)C(C)(C)[C@@H](O)CC(=O)O1 [Epothilone B]	93.3 % of control	0.2 ± 0.04	0.28 ± 0.04
–	–	C/C(=C\c1csc(C)n1)C1CC2OC2(C)CCCC(C)C(O)C(C)C(=O)C(C)C(O)CC(=O)O1 (stereo not drawn) [Example 1, C4-Desmethyl-Epothilone B]	93.3 % of control	0.8 ± 0.16	0.49 ± 0.05
739 ± 86	3.76 ± 0.52	CC(=O)O[C@H]1C(=O)[C@@]2(C)[C@H]([C@H](OC(=O)c3ccccc3)[C@]3(O)C[C@H](OC(=O)[C@H](O)[C@@H](NC(=O)c4ccccc4)c4ccccc4)C(C)=C1C3(C)C)[C@]1(OC(C)=O)CO[C@@H]1C[C@@H]2O [Paclitaxel]	–	–	–
